The source of these data is paper PMC10685196 (Heliyon, 2023).

Read-outs that look alike come from different tables or passages of the source.

Assay [1] concerns Br2 β-glucosidase. The conditions noted are these: read-out: pNP-Glc; 0.1 M sodium phosphate, pH 6.5, 40 °C, 10 min; cited from earlier work.
Assay [2] relates to Br2 β-glucosidase. The settings on record: 0.1 M sodium phosphate, pH 6.5, 40 °C, 10 min.
Assay [3] relates to Br2 β-glucosidase. Nature of the assay: glucose release, glucose oxidase/ABTS assay, Michaelis-Menten fit. Type of assay: biochemical, uncultured bacterium. The settings on record: 0.1 M sodium phosphate, pH 6.5, 40 °C, 10 min.
Assay [4] has as its system Br2 β-glucosidase. The conditions noted are these: read-out: pNP-Glc; 0.1 M sodium phosphate, pH 6.5, 40 °C, 10 min.
In assay [5] the test system is Br2 β-glucosidase. Nature of the assay: p-nitrophenol release, absorbance at […] nm, Michaelis-Menten fit. The class given is biochemical, uncultured bacterium. The conditions noted are these: read-out: pNP-Glc; 0.1 M sodium phosphate, pH 6.5, 40 °C, 10 min.
For assay [6], the target named is Br2 β-glucosidase (glycoside hydrolase family 1), wild type (bovine rumen metagenome (microbe not identified)). Nature of the assay: SEC. (In general: Size exclusion chromatography separates by hydrodynamic size, large species first.)

For the molecule `OC[C@H]1O[C@@H](O[C@H]2[C@H](O)[C@@H](O)C(O)O[C@@H]2CO)[C@H](O)[C@@H](O)[C@@H]1O` (stereo partly shown) [Cellobiose], the Km in the assay on Br2 β-glucosidase [1] is 24.3 ± 9.8 mM.

Consider `OC[C@H]1O[C@@H](O[C@H]2[C@H](O)[C@@H](O)[C@H](O[C@H]3[C@H](O)[C@@H](O)[C@H](O[C@H]4[C@H](O)[C@@H](O)C(O)O[C@@H]4CO)O[C@@H]3CO)O[C@@H]2CO)[C@H](O)[C@@H](O)[C@@H]1O` (stereo partly shown) [Cellotetraose], for which the Km in the assay with Br2 β-glucosidase [2] (read-out: Gentiobiose) amounted to 1.83 ± 0.09 mM; in the assay on Br2 β-glucosidase [3] (read-out: Gentiobiose) it was 3.87 ± 0.16 mM.

Take `OC[C@H]1O[C@@H](O[C@H]2[C@H](O)[C@@H](O)[C@H](O[C@H]3[C@H](O)[C@@H](O)C(O)O[C@@H]3CO)O[C@@H]2CO)[C@H](O)[C@@H](O)[C@@H]1O` (stereo partly shown) [Cellotriose]: the Km in the assay on Br2 β-glucosidase [2] (read-out: Sophorose) amounted to 3.57 ± 0.33 mM; with Br2 β-glucosidase [3] (read-out: Sophorose), 6.73 ± 0.32 mM.

In the case of `OC[C@H]1O[C@@H](OC[C@H]2OC(O)[C@H](O)[C@@H](O)[C@@H]2O)[C@H](O)[C@@H](O)[C@@H]1O` (stereo partly shown) [Gentiobiose], the Km in the assay on Br2 β-glucosidase [3] (read-out: Gentiobiose) came out at 35.8 ± 10.9 mM.

As for `OC[C@H]1O[C@@H](O[C@H]2[C@H](O)[C@@H](CO)OC(O)[C@@H]2O)[C@H](O)[C@@H](O)[C@@H]1O` (stereo partly shown) [Laminaribiose], the Km amounted to 1.29 ± 0.08 mM with Br2 β-glucosidase [3] (read-out: pNP-Glc) and 11.7 ± 4.2 mM in the assay with Br2 β-glucosidase [4].

Turning to `OC[C@H]1O[C@@H](O[C@@H]2[C@@H](O)[C@H](O[C@@H]3[C@@H](O)[C@H](O[C@H]4[C@H](O)[C@@H](CO)OC(O)[C@@H]4O)O[C@H](CO)[C@H]3O)O[C@H](CO)[C@H]2O)[C@H](O)[C@@H](O)[C@@H]1O` (stereo partly shown) [Laminaritetraose], in the assay with Br2 β-glucosidase [3] (read-out: Gentiobiose), the Km was determined as 2.56 ± 0.41 mM.

Turning to `OC[C@H]1O[C@@H](O[C@@H]2[C@@H](O)[C@H](O[C@H]3[C@H](O)[C@@H](CO)OC(O)[C@@H]3O)O[C@H](CO)[C@H]2O)[C@H](O)[C@@H](O)[C@@H]1O` (stereo partly shown) [Laminaritriose], the Km in the assay with Br2 β-glucosidase [3] (read-out: Sophorose) turned out to be 0.9 ± 0.09 mM.

Turning to `OC[C@H]1O[C@@H](O[C@H]2C(O)O[C@H](CO)[C@@H](O)[C@@H]2O)[C@H](O)[C@@H](O)[C@@H]1O` (stereo partly shown) [Sophorose], the Km in the assay on Br2 β-glucosidase [3] (read-out: Sophorose) is 2.68 ± 0.16 mM.

For `O=[N+]([O-])c1ccc(O[C@@H]2O[C@H](CO)[C@@H](O)[C@H](O)[C@H]2O)cc1` [pNP-Glc, p-nitrophenyl β-D-glucopyranoside], the Km in the assay with Br2 β-glucosidase [5] is 0.55 ± 0.04 mM.

In assay [6], “Br2 β-glucosidase (glycoside hydrolase family 1), wild type (enzyme)” came in with a stoichiometry N of 4.

Usually stoichiometry N stands for a count of units in the complex or per binding partner.
